Measured values taken from ChEMBL document CHEMBL1127010, “Synthesis of 3-acetoxy-12-epoxy-25-hydroxy-cholesta-5,7-diene and 2-25-dihydroxyvitamin D3” (1993).

Tested on: HL-60
Test: Concentration required for induction of HL-60 cell differentiation (ATCC cells) to 50% was determined
Format: functional, Homo sapiens

C=C1C[C@H](O)[C@H](O)C/C1=C/C=C1\CCCC2(C)C1CCC2[C@H](C)CCCC(C)(C)O (stereo partly specified)
EC50: 600 nM
